Assay results published in patent publication US20240024292A1, “ATALUREN EYE DROP FORMULATION” (INSTITUT NATIONAL DE LA SANTÉ ET DE LA RECHERCHE MÉDICALE, priority 2020, published 2024).
≈ marks a conversion by molar mass, not a printed value. Entries after “also recorded” stand apart in the source; their conditions may differ.

How the values were obtained:
[1] = cited from earlier work
[2] = Forced degradation studies (acidic, alkaline, oxidative stress at 60° C.), HPLC quantification; assay type: physicochemical
Method: (§1) For each unit, ataluren was quantified using the liquid chromatography method adapted from the method described by Kong et al.. Analyses were performed on a Thermo Scientific Ultimate 3000 chromatogram system (Villebon-sur-Yvette, France) including a quaternary pump (LPG 3400A), an automatic sampler (WPS 3000TSL), a diode array detector (DAD 300016) with 5 cm flow cell, and the associated software used to record and interpret chromatograms (Chromeleon®, Version 8.0). The stationary phase consisted in a Kinetex® C18 column (250×4.6 mm; 5 μm, Phenomenex, Le Pecq, France). The mobile phase was a gradient mixture of 0.1% formic acid (A) and acetonitrile (B). The flow rate was maintained at 1 mL/min, and the gradient profile was as follows: t0-11 min: A=30% B=70%; t11-15 min A=70% B=30%. The injection volume was 50 μL. The drug absorbance for quantification was obtained at 276 nm.
[…] To mimic the potential photodegradation occurring prior or after drug administration, photolytic studies were carried out by exposing the drug solutions to direct UV-visible light with and without photocatalyst or photosensitizer (i.e. titanium oxide 1 g L-1, riboflavin 100 mg L-1). Photolysis experiments were performed using a QSUN-XE-1 (Q-Lab, Bolton, United Kingdom) light chamber equipped with a xenon lamp, which simulates natural sunlight in a wavelength range of 300-800 nm. […]

[3] = Photolysis under simulated sunlight, with and without photocatalyst or photosensitizer; assay type: physicochemical; settings: for % remaining: Direct photolysis, visible ~119,600 lx, UVA 300-400 nm 66.5 W m^−2; for degradation in direct photolytic stress condition: direct light exposure
Method: as §1
The specificity was assessed by subjecting the ataluren 1% solubilized in DMSO (10%) and castor oil solutions to various forced degradation conditions: 0.1M hydrochloric acid (HCl), 0.1M sodium hydroxide (NaOH), 0.3% and 15% hydrogen peroxide (H2O2) for 24 h, 48 h, and 72 h at 60° C. To mimic the potential photodegradation occurring prior or after drug administration, photolytic studies were carried out by exposing the drug solutions to direct UV-visible light with and without photocatalyst or photosensitizer (i.e. titanium oxide 1 g L-1, riboflavin 100 mg L-1). Photolysis experiments were performed using a QSUN-XE-1 (Q-Lab, Bolton, United Kingdom) light chamber equipped with a xenon lamp, which simulates natural sunlight in a wavelength range of 300-800 nm. A Daylight-Q filter was used to simulate CIE Standard Illuminant D65 (Q-Lab) and irradiance was maintained constant (1.5 W m-2 at 420 nm). The measurements corresponded to a visible intensity of ˜119,600 1×, and a UVA intensity at 300-400 nm of 66.5 W m-2. For all the experiments the temperature was controlled and set at 25±0.5° C.

[4] = ophthalmic application, DMSO in association with dilute povidone-iodine; cited from earlier work

appearance of degradation products ([2]; 15% hydrogen peroxide exposure) | degradation under stress ([2]; strong acidic, basic or 0.3% H2O2 conditions, after 7 days exposure) | SMILES | solubility ([1]; 1:1 solution of DMSO: PBS pH 7.2) [µg/mL] | solubility in aqueous buffers ([1]; aqueous buffers) | solubility in organic solvents ([1]; organic solvents such as dimethyl sulfoxide (DMSO)) | solubility in water ([1]; water) | % remaining ([3]; 30 min exposition) [%] | % remaining ([3]; 60 min exposition) [%] | % remaining ([3]; 180 min exposition) [%] | % remaining ([3]; 360 min exposition) [%] | degradation in direct photolytic stress condition [3] | degradation in direct photolytic stress condition ([3]; listed as Ataluren) | degradation under light with photocatalyst ([3]; in presence of photocatalyst agent (titanium oxide)) | degradation under light with photosensitizer ([3]; in the presence of riboflavin) | patients with mild irritation (stinging, tingling or burning at the application), without serious adverse effects [4] [%]
Degradation products appeared | not degraded | O=C(O)c1cccc(-c2noc(-c3ccccc3F)n2)c1 [ataluren, 3-(5-(2-fluorophenyl)-1,2,4-oxadiazol-3-yl)benzoic acid] | ~500 (≈ 1760 µM) | sparingly soluble | soluble | very slightly soluble | 100.1 | 102.4 | 100.1 | 103.4 | not degraded | did not decrease | rapidly degraded; also recorded: decreased | This was not the case; also recorded: no degradation was observed | 
 |  | C[S+](C)[O-] [DMSO, dimethylsulfoxyde] |  |  |  |  |  |  |  |  |  |  |  |  | 11.8
